# Assay results taken from patent US10358434B2, “2-(3-pyridinyl)-1H-benzimidazole derivative compound and medicament containing same” (NIHON MEDI-PHYSICS CO., LTD., priority 2014, dated 2019).
# Columns and labels:
# [1] = system: human adrenal gland section expressing aldosterone-producing adenoma; assay: In vitro autoradiography using human adrenal adenoma; format: binding; settings: section of FIG. 17(b)
# Outline: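 Frozen 7-μm sections of human adrenal bearing aldosterone-producing adenoma were immersed 10 min in radioligand (5-33 kBq/mL) in PBS with 1% fatty-acid-free BSA, washed, then exposed to imaging plates for 16-20 h. Equal-area ROI PSL in adenoma (B2) versus normal cortex (B1) gave B2/B1, corrected for nuclide half-life, added activity and exposure time.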
# [2] = In vivo kinetics experiment (radioactivity distribution); design: species or system Wistar male rat; settings: rat i.v., mean ± SD
# Outline: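 Male Wistar rats (9 weeks) under isoflurane received approximately 1 to 3.7 MBq radiotracer in saline with 1 w/v % ascorbic acid by tail-vein injection. At 10, 30 and 60 min, rats were exsanguinated; blood, organs and remaining body weighed and counted, giving % ID/g and adrenal-to-tissue ratios.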
# [3] = Plasma stability evaluation (TLC analysis); format: in vitro ADME; settings: 37° C., 60 minutes, TLC analysis
# Outline: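 Radiolabelled compounds were incubated in heparin-treated pooled normal human plasma at 37° C for 60 minutes. After methanol deproteinization and centrifugation, stability was assessed by TLC under the conditions used for each compound's synthesis.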
smiles,measurement,setting,value
"CCn1c(-c2cncc(Cn3ccnc3)c2)nc2ccc([123I])cc21 [[^123I] 608, 2-[5-{(1H-imidazol-1-yl)methyl}pyridin-3-yl]-1-ethyl-6-[^123I]iodo-1H-benzo[d]imidazole]",B2/B1 accumulation ratio,[1],1.08
same,"B2 (PSL value, aldosterone-producing adenoma)",[1]; site 71b,3580
same,"B1 (PSL value, normal adrenal cortex)",[1]; site 72b,3303
same,Adrenal gland/blood ratio of radioactivity accumulation,[2]; 10 min after administration,75.29 ± 24.87
same,Adrenal gland/fat ratio of radioactivity accumulation,[2]; 10 min after administration,90.02 ± 14.66
same,Adrenal gland/kidney ratio of radioactivity accumulation,[2]; 10 min after administration,4.95 ± 1.61
same,Adrenal gland/liver ratio of radioactivity accumulation,[2]; 10 min after administration,2.86 ± 0.42
same,Adrenal gland/muscle ratio of radioactivity accumulation,[2]; 10 min after administration,57.35 ± 15.85
same,Adrenal gland/small intestine ratio of radioactivity accumulation,[2]; 10 min after administration,5.04 ± 0.35
same,Radioactivity distribution Adrenal gland,[2]; 10 min after administration,8.76 ± 2.34 % ID/g
same,Radioactivity distribution Bladder (including urine),[2]; 10 min after administration,0.82 ± 0.43 % ID/g
same,Radioactivity distribution Blood,[2]; 10 min after administration,0.12 ± 0.01 % ID/g
same,Radioactivity distribution Fat,[2]; 10 min after administration,0.10 ± 0.01 % ID/g
same,Radioactivity distribution Femur,[2]; 10 min after administration,0.82 ± 0.05 % ID/g
same,Radioactivity distribution Heart,[2]; 10 min after administration,0.74 ± 0.09 % ID/g
same,Radioactivity distribution Kidney,[2]; 10 min after administration,1.79 ± 0.11 % ID/g
same,Radioactivity distribution Large intestine,[2]; 10 min after administration,0.12 ± 0.01 % ID/g
same,Radioactivity distribution Liver,[2]; 10 min after administration,3.03 ± 0.36 % ID/g
same,Radioactivity distribution Lung,[2]; 10 min after administration,1.11 ± 0.11 % ID/g
same,Radioactivity distribution Muscle (lower limbs),[2]; 10 min after administration,0.15 ± 0.00 % ID/g
same,Radioactivity distribution Remaining whole body,[2]; 10 min after administration,0.29 ± 0.05 % ID/g
same,Radioactivity distribution Small intestine,[2]; 10 min after administration,1.74 ± 0.42 % ID/g
same,Radioactivity distribution Spleen,[2]; 10 min after administration,3.79 ± 1.44 % ID/g
same,Radioactivity distribution Stomach,[2]; 10 min after administration,0.53 ± 0.16 % ID/g
same,Radioactivity distribution Testis,[2]; 10 min after administration,0.07 ± 0.01 % ID/g
same,Radioactivity distribution Whole brain,[2]; 10 min after administration,0.03 ± 0.01 % ID/g
same,Adrenal gland/blood ratio of radioactivity accumulation,[2]; 30 min after administration,172.72 ± 25.00
same,Adrenal gland/fat ratio of radioactivity accumulation,[2]; 30 min after administration,103.83 ± 16.66
same,Adrenal gland/kidney ratio of radioactivity accumulation,[2]; 30 min after administration,5.90 ± 0.47
same,Adrenal gland/liver ratio of radioactivity accumulation,[2]; 30 min after administration,10.03 ± 1.46
same,Adrenal gland/muscle ratio of radioactivity accumulation,[2]; 30 min after administration,65.62 ± 16.66
same,Adrenal gland/small intestine ratio of radioactivity accumulation,[2]; 30 min after administration,3.39 ± 0.42
same,Radioactivity distribution Adrenal gland,[2]; 30 min after administration,10.75 ± 1.11 % ID/g
same,Radioactivity distribution Bladder (including urine),[2]; 30 min after administration,2.70 ± 1.51 % ID/g
same,Radioactivity distribution Blood,[2]; 30 min after administration,0.06 ± 0.01 % ID/g
same,Radioactivity distribution Fat,[2]; 30 min after administration,0.10 ± 0.01 % ID/g
same,Radioactivity distribution Femur,[2]; 30 min after administration,1.17 ± 0.02 % ID/g
same,Radioactivity distribution Heart,[2]; 30 min after administration,0.76 ± 0.16 % ID/g
same,Radioactivity distribution Kidney,[2]; 30 min after administration,1.82 ± 0.08 % ID/g
same,Radioactivity distribution Large intestine,[2]; 30 min after administration,0.11 ± 0.00 % ID/g
same,Radioactivity distribution Liver,[2]; 30 min after administration,1.08 ± 0.13 % ID/g
same,Radioactivity distribution Lung,[2]; 30 min after administration,1.14 ± 0.08 % ID/g
same,Radioactivity distribution Muscle (lower limbs),[2]; 30 min after administration,0.17 ± 0.03 % ID/g
same,Radioactivity distribution Remaining whole body,[2]; 30 min after administration,0.30 ± 0.00 % ID/g
same,Radioactivity distribution Small intestine,[2]; 30 min after administration,3.18 ± 0.18 % ID/g
same,Radioactivity distribution Spleen,[2]; 30 min after administration,4.81 ± 0.73 % ID/g
same,Radioactivity distribution Stomach,[2]; 30 min after administration,1.34 ± 0.66 % ID/g
same,Radioactivity distribution Testis,[2]; 30 min after administration,0.11 ± 0.00 % ID/g
same,Radioactivity distribution Whole brain,[2]; 30 min after administration,0.02 ± 0.00 % ID/g
same,Adrenal gland/blood ratio of radioactivity accumulation,[2]; 60 min after administration,345.58 ± 116.00
same,Adrenal gland/fat ratio of radioactivity accumulation,[2]; 60 min after administration,158.96 ± 131.25
same,Adrenal gland/kidney ratio of radioactivity accumulation,[2]; 60 min after administration,10.46 ± 6.81
same,Adrenal gland/liver ratio of radioactivity accumulation,[2]; 60 min after administration,25.91 ± 10.25
same,Adrenal gland/muscle ratio of radioactivity accumulation,[2]; 60 min after administration,113.23 ± 76.79
same,Adrenal gland/small intestine ratio of radioactivity accumulation,[2]; 60 min after administration,3.39 ± 1.14
same,Radioactivity distribution Adrenal gland,[2]; 60 min after administration,15.22 ± 7.58 % ID/g
same,Radioactivity distribution Bladder (including urine),[2]; 60 min after administration,2.67 ± 0.43 % ID/g
same,Radioactivity distribution Blood,[2]; 60 min after administration,0.04 ± 0.01 % ID/g
same,Radioactivity distribution Fat,[2]; 60 min after administration,0.11 ± 0.04 % ID/g
same,Radioactivity distribution Femur,[2]; 60 min after administration,1.28 ± 0.07 % ID/g
same,Radioactivity distribution Heart,[2]; 60 min after administration,0.72 ± 0.09 % ID/g
same,Radioactivity distribution Kidney,[2]; 60 min after administration,1.55 ± 0.21 % ID/g
same,Radioactivity distribution Large intestine,[2]; 60 min after administration,0.16 ± 0.07 % ID/g
same,Radioactivity distribution Liver,[2]; 60 min after administration,0.57 ± 0.06 % ID/g
same,Radioactivity distribution Lung,[2]; 60 min after administration,0.94 ± 0.08 % ID/g
same,Radioactivity distribution Muscle (lower limbs),[2]; 60 min after administration,0.15 ± 0.03 % ID/g
same,Radioactivity distribution Remaining whole body,[2]; 60 min after administration,0.28 ± 0.01 % ID/g
same,Radioactivity distribution Small intestine,[2]; 60 min after administration,4.35 ± 0.69 % ID/g
same,Radioactivity distribution Spleen,[2]; 60 min after administration,4.13 ± 1.21 % ID/g
same,Radioactivity distribution Stomach,[2]; 60 min after administration,1.15 ± 0.26 % ID/g
same,Radioactivity distribution Testis,[2]; 60 min after administration,0.09 ± 0.01 % ID/g
same,Radioactivity distribution Whole brain,[2]; 60 min after administration,0.02 ± 0.00 % ID/g
same,Radiochemical purity after incubation in human plasma,[3],88%
